Measured values taken from patent publication US20240123079A1 (Seagen Inc., priority 2021, published 2024).
Values joined by “and” are separate entries in the source; they are usually repeats but may differ in a detail not shown here. Equal values may be shown once.

Tests used:
[1] = system: A2058; test: Cancer cell direct cytotoxicity assay (CellTiter-Glo), A2058; assay type: cell-based; conditions: Homo sapiens; A2058, 96 h, free compound; read-out: Compound X50
Protocol: (§1) Bystander activity of ADCs was evaluated using Renca cancer cells and THP1-Dual™ cells (InvivoGen) which contain an IRF-Lucia luciferase reporter. Cells were cultured in RPMI-1640 (Gibco) with 10% heat-inactivated fetal bovine serum, Pen-Strep (100 U/ml-100 μg/ml, Gibco), HEPES (10 mM, Gibco), sodium pyruvate (1 mM, Gibco), MEM non-essential amino acids (1×, Gibco), GlutaMAX (1×, Gibco), and beta-mercaptoethanol (55 μM, Gibco). Renca cells were plated in a 96-well flat bottom tissue culture-treated clear polystyrene plate (Corning Costar #3596) at 50,000 cells per well in 100 μL. On the day following the initial plating, 50,000 THP1-Dual™ cells were added to each well with the indicated concentration of ADC in a total volume of 200 μL. Supernatant was harvested at 48 hours post addition of the THP1-Dual™ cells. To measure Lucia reporter signal, 10 μL of supernatant was combined with 40 μL of QUANTI-Luc™ Luminescence assay reagent (Invivogen PN: rep-qlc1) in a 96-well clear flat bottom tissue culture-treated black polystyrene plate (Corning Costar PN: 3603) and read on a Perkin Elmer Envision plate reader. In some experiments, HEK 293T cells engineered to express a murine protein typically expressed by immune cells (target antigen C— an immune cell antigen) were plated as above instead of Renca tumor cells. Cancer Cell Direct Cytotoxicity Assay
(§2) Cancer cells were counted and plated in 40 μL complete growth media in 384-well, white-walled tissue culture treated plates (Corning). Cell plates were incubated at 37° C. and with 5% CO2 overnight to allow the cells to equilibrate. Stock solutions containing ADCs or free drugs were serially diluted in RPMI-1640+20% fetal bovine serum (FBS). 10 μL of each concentration were then added to each cell plate in duplicate. Cells were then incubated at 37° C. and with 5% CO2 for 96 hours, upon which, the cell plates were removed from the incubator and allowed to cool to room temperature for 30 minutes prior to analysis. […] The luminescence of the samples was measured using an EnVision Multimode plate reader (Perkin Elmer, Waltham, MA). […]

[2] = system: CT26 cancer cells; test: CT26 tumor model, in vivo anti-tumor activity; parameters: species or system mouse; conditions: CT26 tumor-bearing mice, q7dx3
Protocol: CT26 cancer cells (ATCC) were cultured in RPMI 1640 modified with 1 mM Sodium Pyruvate, 10 mM HEPES, 2.8 mL 45% Glucose (1.25 g) and supplemented with 10% fetal bovine serum and 1% Pen/Strep/Glutamine. CT26 cancer cells were implanted ([…] in 200 uL serum-free RPMI 1640) subcutaneously into Balb/c mice.

[3] = system: DELBVR; test: Cancer cell direct cytotoxicity assay (CellTiter-Glo), DELBVR; assay type: cell-based; conditions: Homo sapiens, 96 h, free compound, read-out: Compound X50
Protocol: as §1, §2

[4] = system: wild type (WT) murine bone marrow-derived macrophages; test: Bone marrow-derived macrophage assay, wild type; assay type: cell-based, mouse; conditions: 24 h
Protocol: Bone Marrow-Derived Macrophage Assay
Potency of the compounds described herein was evaluated using mouse bone-marrow derived macrophages cultured from wild type (C57BL/6J, the Jackson Laboratory #000664) or STING-deficient (C57BL/6J-Sting1^gt/J, the Jackson Laboratory #017537) mice. Briefly, mouse bone marrow cells were cultured for 7-10 days in RPMI-1640 (Gibco) with 10% heat-inactivated fetal bovine serum, Pen-Strep (100 U/mL-100 μg/mL, Gibco), HEPES (10 mM, Gibco)), sodium pyruvate (1 mM, Gibco), GlutaMAX (1×, Gibco), beta-mercaptoethanol (55 μM, Gibco) and 20-40 ng/mL murine M-CSF (Peprotech, #315-02). Cells were plated in a 96-well flat bottom tissue culture-treated clear polystyrene plate (Corning Costar #3596) at ˜100,000 cells per well in 200 μL with the indicated concentration of the compound. The supernatant was harvested at 24 hours and cytokines were measured using a Milliplex MAP mouse cytokine/chemokine magnetic bead panel assay kit (MCYTOMAG-70k custom 11-plex kit: MCP1, MIP1α, MIP1β, TNFα, IFNγ, IL-10, IL-12p70, IL-1β, IL-6, IP10, RANTES) and analyzed using a Luminex™ MAGPIX™ Instrument System.

[5] = system: Ls174T; test: Cancer cell direct cytotoxicity assay (CellTiter-Glo), Ls174T; assay type: cell-based; conditions: Homo sapiens, 96 h, free compound, read-out: Compound X50
Protocol: as §1, §2

[6] = system: BxPC3; test: Cancer cell direct cytotoxicity assay (CellTiter-Glo), BxPC3; assay type: cell-based; conditions: Homo sapiens, BXPC-3; BxPC3, 96 h, free compound; read-out: Compound X50
Protocol: as §1, §2

[7] = In vivo cytokine assay, plasma of CT26 tumor-bearing mice; parameters: species or system mouse; conditions: 1.86 mg/kg
Protocol: Cytokines were measured in mouse plasma harvested at 3, 6, 24, or 48 hours after treatment with compounds or ADCs using a Milliplex MAP mouse cytokine/chemokine magnetic bead panel assay kit (MCYTOMAG-70k custom 11-plex kit: MCP1, MIP1α, MIP1β, TNFα, IFNγ, IL-10, IL-12p70, IL-6, IL-1β, IP10, RANTES) and analyzed using a Luminex™ MAGPIX™ Instrument System. Values that were outside of the standard curve range (<3.2 or […]) were excluded from calculation of the mean values.

[8] = system: Karpas299; test: Cancer cell direct cytotoxicity assay (CellTiter-Glo), Karpas299; assay type: cell-based; conditions: Homo sapiens, KARPAS-299; Karpas299, 96 h, free compound; read-out: Compound X50
Protocol: as §1, §2

Question: With CCn1nc(C)cc1C(=O)Nc1nc2cc(C(N)=O)cc(O)c2n1C/C=C/Cn1c(NC(=O)c2cc(C)nn2CC)nc2cc(C(N)=O)cc(OC)c21 [Compound 1, (E)-1-(4-(5-carbamoyl-2-(1-ethyl-3-methyl-1H-pyrazole-5-carboxamido)-7-hydroxy-1H-benzo[d]imidazol-1-yl)but-2-en-1-yl)-2-(1-ethyl-3-methyl-1H-pyrazole-5-carboxamido)-7-methoxy-1H-benzo[d]imidazole-5-carboxamide] as the compound, how does the IC50 [1] read?
Answer: > 1000 nM

Question: And the “tumor growth delay” value [2]?
Answer: minimal tumor growth delay

Question: And the IC50 [3]?
Answer: 16 nM

Question: And the cytokine production [4]?
Answer: induced cytokine production

Question: And the IC50 [5]?
Answer: > 1000 nM

Question: And the IC50 [6]?
Answer: > 1000 nM

Question: What about the “IL-6 in peripheral blood (plasma)” value ([7]; 3 h) of the same compound?
Answer: 622.1 and 781.4 and 1128.3

Question: What about the “IP-10 in peripheral blood (plasma)” value ([7]; 3 h) of the same compound?
Answer: 1439.4 and 1501.7 and 1160.7

Question: What about the “MCP-1 in peripheral blood (plasma)” value ([7]; 3 h) of the same compound?
Answer: 73.7 and 78.6 and 110.3

Question: And the “MIP1b in peripheral blood (plasma)” value ([7]; 3 h)?
Answer: 297.7 and 336.8 and 224

Question: What about the “MIP-1a in peripheral blood (plasma)” value ([7]; 3 h) of the same compound?
Answer: 3.9 and 3.2

Question: What about the “TNFa in peripheral blood (plasma)” value ([7]; 3 h) of the same compound?
Answer: 3.2 and 4.9 and 4.3

Question: What about the “IL-6 in peripheral blood (plasma)” value ([7]; 6 h) of the same compound?
Answer: 2652.5 and 2393.5 and 2412.7

Question: What about the “IP-10 in peripheral blood (plasma)” value ([7]; 6 h) of the same compound?
Answer: 2610.8 and 2133.6 and 2473.4

Question: And the “MCP-1 in peripheral blood (plasma)” value ([7]; 6 h)?
Answer: 3185.3 and 2816.3 and 1634.8

Question: What about the “MIP-1a in peripheral blood (plasma)” value ([7]; 6 h) of the same compound?
Answer: 94.6 and 93.6 and 73.9

Question: What about the “TNFa in peripheral blood (plasma)” value ([7]; 6 h) of the same compound?
Answer: 16.9 and 16.6 and 10

Question: And the “IL-6 in peripheral blood (plasma)” value ([7]; 24 h)?
Answer: 44.5 and 31.8 and 36.5

Question: And the “IL-10 in peripheral blood (plasma)” value ([7]; 24 h)?
Answer: 3.2

Question: And the “IP-10 in peripheral blood (plasma)” value ([7]; 24 h)?
Answer: 1121.6 and 1025.3 and 696.2

Question: And the “MCP-1 in peripheral blood (plasma)” value ([7]; 24 h)?
Answer: 397.7 and 294.7 and 305.9

Question: What about the “IL-10 in peripheral blood (plasma)” value ([7]; 48 h) of the same compound?
Answer: 3.2

Question: And the “IP-10 in peripheral blood (plasma)” value ([7]; 48 h)?
Answer: 560.1 and 398.8 and 560

Question: And the IC50 [8]?
Answer: > 1000 nM

Question: Which results are given for CCn1nc(C)cc1C(=O)Nc1nc2cc(C(N)=O)cc(OC)c2n1C/C=C/Cn1c(NC(=O)c2cc(C)nn2CC)nc2cc(C(N)=O)cc(OCCCNC)c21 [Compound 12a]?
Answer: IC50 [1]: > 1000 nM; IC50 [3]: 111 nM; cytokine production [4]: induced cytokine production; IC50 [5]: > 1000 nM; IC50 [6]: > 1000 nM; IC50 [8]: > 1000 nM
